The results in this text go back to the supplement of paper PMC10307832.

Compound in assay [1]: Cc1ccccc1C(C(=O)NC1CCCCC1)N(C(=O)Cn1ccnc1C)c1cccc(F)c1 [IDH-C35]
The assay is described as follows: relative viability (nuclei count vs DMSO), 5 days (fraction); higher = more cells survive. In a few lines:
(§1)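 A plate was accepted only when its control CV was below 25% and the cells had doubled at least once. Viability is defined from nuclear counts as treated wells divided by vehicle wells, with the median taken across plates. That median covers lung cancer cell lines grown in 1536-well plates, dosed by pinning at five √10-spaced library-drug concentrations, and counted in MetaXpress from 4× Hoechst images after 5 days.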

Compound in assay [2]: CC1=C(C(=NN1)C)CC2=C(C3=C(S2)N(C(=O)N(C3=O)C)CC(C)C)C(=O)N4C[C@@H](CO4)O
The description is as above. The procedure, abridged:
as §1

For the cell line NCI-H2228, the relative viability worked out at 0.87 in assay [1] (0.08 µM); 0.935 in assay [1] (0.253 µM); 0.968 in assay [1] (0.8 µM); 1.01 in assay [1] (2.53 µM); 0.935 in assay [1] (8 µM); 0.925 in assay [2] (0.0025 µM). Also, the relative viability in assay [2] (0.007906 µM) was 1.24; in assay [2] (0.025 µM), 1.13; in assay [2] (0.07906 µM), 0.907; in assay [2] (0.25 µM), 1.08.
As to NCI-H2342, the relative viability amounted to 1.02 in assay [1] (0.08 µM); 0.957 in assay [1] (0.253 µM); 0.901 in assay [1] (0.8 µM); 0.908 in assay [1] (2.53 µM); 0.891 in assay [1] (8 µM); 1.06 in assay [2] (0.0025 µM). For the same cell line, the relative viability in assay [2] (0.007906 µM) came out at 0.935; in assay [2] (0.025 µM) it was 1.03; in assay [2] (0.07906 µM), 0.975; in assay [2] (0.25 µM) it was 0.886.
Consider NCI-H2347, for which the relative viability in assay [1] (0.08 µM) was determined as 1.04; in assay [1] (0.253 µM), 1.06; in assay [1] (0.8 µM) it was 0.937; in assay [1] (2.53 µM), 1.02; in assay [1] (8 µM), 0.997; in assay [2] (0.0025 µM), 1.11. Moreover, the relative viability in assay [2] (0.007906 µM) was 1.2; in assay [2] (0.025 µM), 0.949; in assay [2] (0.07906 µM), 0.983; in assay [2] (0.25 µM), 1.04.
Regarding NCI-H2405, the relative viability in assay [1] (0.08 µM) was found to be 1.05; in assay [1] (0.253 µM), 1; in assay [1] (0.8 µM), 0.971; in assay [1] (2.53 µM), 0.996; in assay [1] (8 µM), 1.02; in assay [2] (0.0025 µM) it was 1.1. Moreover, the relative viability in assay [2] (0.007906 µM) stood at 1.04; in assay [2] (0.025 µM), 0.653; in assay [2] (0.07906 µM) it was 0.921; in assay [2] (0.25 µM), 0.962.
NCI-H3122: the relative viability amounted to 0.999 in assay [1] (0.08 µM); 1.02 in assay [1] (0.253 µM); 1.01 in assay [1] (0.8 µM); 0.985 in assay [1] (2.53 µM); 0.973 in assay [1] (8 µM); 1.01 in assay [2] (0.0025 µM). In addition, the relative viability in assay [2] (0.007906 µM) was 0.971; in assay [2] (0.025 µM), 0.99; in assay [2] (0.07906 µM) it was 1.01; in assay [2] (0.25 µM), 1.03.
Regarding PC-3 [JPC-3], the relative viability came to 1.04 in assay [1] (0.08 µM); 1 in assay [1] (0.253 µM); 1.04 in assay [1] (0.8 µM); 1.08 in assay [1] (2.53 µM); 1.04 in assay [1] (8 µM); 1.1 in assay [2] (0.0025 µM). Besides, the relative viability in assay [2] (0.007906 µM) came to 1.05; in assay [2] (0.025 µM), 1.01; in assay [2] (0.07906 µM), 1.04; in assay [2] (0.25 µM), 1.07.
Take PC-14: the relative viability in assay [1] (0.08 µM) worked out at 1.04; in assay [1] (0.253 µM), 0.996; in assay [1] (0.8 µM), 1; in assay [1] (2.53 µM), 0.997; in assay [1] (8 µM) it was 0.937; in assay [2] (0.0025 µM) it was 1.06. Besides, the relative viability in assay [2] (0.007906 µM) stood at 1.06; in assay [2] (0.025 µM), 0.889; in assay [2] (0.07906 µM), 1.12; in assay [2] (0.25 µM), 1.16.
For RERF-LC-KJ, the relative viability in assay [1] (0.08 µM) came out at 0.962; in assay [1] (0.253 µM), 0.929; in assay [1] (0.8 µM), 1.03; in assay [1] (2.53 µM), 1.01; in assay [1] (8 µM), 0.943; in assay [2] (0.0025 µM), 1.01. For the same cell line, the relative viability in assay [2] (0.007906 µM) was found to be 1.07; in assay [2] (0.025 µM) it was 0.985; in assay [2] (0.07906 µM) it was 0.98; in assay [2] (0.25 µM), 1.06.
For the cell line SK-LU-1, the relative viability in assay [1] (0.08 µM) came out at 1.01; in assay [1] (0.253 µM), 0.986; in assay [1] (0.8 µM) it was 1.1; in assay [1] (2.53 µM), 1.05; in assay [1] (8 µM), 1.01; in assay [2] (0.0025 µM) it was 0.914. For the same cell line, the relative viability in assay [2] (0.007906 µM) worked out at 0.789; in assay [2] (0.025 µM) it was 0.634; in assay [2] (0.07906 µM), 0.714; in assay [2] (0.25 µM), 0.615.
Regarding SK-MES-1, the relative viability in assay [1] (0.08 µM) stood at 0.983; in assay [1] (0.253 µM), 0.984; in assay [1] (0.8 µM), 0.985; in assay [1] (2.53 µM), 1.02; in assay [1] (8 µM), 0.986; in assay [2] (0.0025 µM), 1.03. In addition, the relative viability in assay [2] (0.007906 µM) stood at 1.07; in assay [2] (0.025 µM) it was 1.02; in assay [2] (0.07906 µM) it was 1.07; in assay [2] (0.25 µM) it was 1.06.
With SW 900, the relative viability was 0.871 in assay [1] (0.08 µM); 0.849 in assay [1] (0.253 µM); 0.768 in assay [1] (0.8 µM); 0.834 in assay [1] (2.53 µM); 0.897 in assay [1] (8 µM); 1.06 in assay [2] (0.0025 µM). For the same cell line, the relative viability in assay [2] (0.007906 µM) came out at 1.16; in assay [2] (0.025 µM) it was 0.835; in assay [2] (0.07906 µM), 0.888; in assay [2] (0.25 µM), 0.97.
As to SW 1573, the relative viability in assay [1] (0.08 µM) was found to be 1.1; in assay [1] (0.253 µM) it was 1.12; in assay [1] (0.8 µM), 0.951; in assay [1] (2.53 µM), 0.875; in assay [1] (8 µM), 0.898; in assay [2] (0.0025 µM), 1.02. Besides, the relative viability was 1.09 in assay [2] (0.007906 µM), 0.975 in assay [2] (0.025 µM), 0.957 in assay [2] (0.07906 µM) and 1.05 in assay [2] (0.25 µM).
